Experimental findings from ChEMBL document CHEMBL5126546, “Advancements in the development of multi-target directed ligands for the treatment of Alzheimer's disease” (Bioorg Med Chem, 2022) are described below.

The IC50 is the concentration needed to halve the response being measured. By inhibition is commonly meant the relative decrease from the control value, in per cent.

Data set [1] deals with T1, Acetylcholinesterase (Electrophorus electricus, UniProt O42275). In words: Inhibition of Electrophorus electricus AChE using acetylthiocholine iodide as substrate preincubated for 5 mins followed by substrate addition and measured for 5 mins by spectrophotometric based Ellman's method. On the technique in general: Ellman's reagent forms a yellow product with free thiols.

In data set [2] the target is T2, Beta-secretase 1 (Homo sapiens, UniProt P56817). In words: Inhibition of BACE-1 (unknown origin).
Data set [3] addresses T3, Acetylcholinesterase (Homo sapiens, UniProt P22303). In words: Inhibition of recombinant human AChE using Amplex red, acetylthiocholine as substrate preincubated for 15 mins followed by substrate addition and measured after 30 mins by microplate fluorescence reader analysis.
In data set [4] the target is T4, Amyloid-beta precursor protein (Homo sapiens, UniProt P05067). Briefly: Inhibition of amyloid beta (1 to 42) (unknown origin) self aggregation incubated for 24 hrs by Thioflavin T based fluorometric assay.
The target of data set [5] is T3, Acetylcholinesterase. In words: Inhibition of human AChE using acetylthiocholine iodide as substrate preincubated for 6 mins followed by substrate addition and measured for 12 mins by DTNB reagent based Ellman's method.
Data set [6] deals with T5, Cholinesterase (Homo sapiens, UniProt P06276). Briefly: Inhibition of human BuChE using butyrylthiocholine iodide as substrate at 10 uM preincubated for 6 mins followed by substrate addition and measured for 12 mins by DTNB reagent based Ellman's method. The conditions noted are these: time 18.0 min.
Data set [7] has as its target T2, Beta-secretase 1. In words: Inhibition of human BACE-1 using Rh-EVNLDAEFK-quencher as peptide substrate incubated for 1 hr in dark by FRET assay.
Data set [8] concerns the target T6, Gamma-secretase (Homo sapiens) (UniProt Q96BI3+Q9NZ42+Q8WW43+P49768+Q92542+P49810). In words: Inhibition of gamma secretase in human H4 cells expressing human wild type APP assessed as reduction in amyloid beta 1-40 level at 100 uM for 12 hrs by ELISA. Format: cell-based. (An ELISA detects its analyte on a solid surface through an enzyme-linked reagent.)
In data set [9] the target is T6, Gamma-secretase (Homo sapiens). Briefly: Inhibition of gamma secretase in human H4 cells expressing human wild type APP assessed as reduction in amyloid beta 1-42 level at 100 uM for 12 hrs by ELISA. Format: cell-based.
The target in data set [10] is Amine oxidase [flavin-containing] A (Homo sapiens, UniProt P21397). Briefly: Inhibition of recombinant human MAO-A using p-tyramine as substrate preincubated for 15 mins followed by substrate addition and measured after 30 mins by Amplex Red reagent based fluorometric analysis.
The target of data set [11] is Amine oxidase [flavin-containing] B (Homo sapiens, UniProt P27338). Briefly: Inhibition of recombinant human MAO-B using p-tyramine as substrate preincubated for 15 mins followed by substrate addition and measured after 30 mins by Amplex Red reagent based fluorometric analysis.
In data set [12] the target is T4, Amyloid-beta precursor protein. In words: Inhibition of Cu2+ induced amyloid beta (1 to 42) (unknown origin) aggregation at 25 uM and measured after 24 hrs by Thioflavin T based fluorometric assay.
The target in data set [13] is T1, Acetylcholinesterase. In words: Inhibition of Electrophorus electricus AChE using acetylthiocholine iodide as substrate preincubated for 5 mins followed by substrate addition and measured for 2 mins by spectrophotometric based Ellman's method.
Data set [14] deals with Cholinesterase (Equus caballus, UniProt P81908). Briefly: Inhibition of equine serum BuChE using butyrylthiocholine iodide as substrate preincubated for 5 mins followed by substrate addition and measured for 2 mins by spectrophotometric based Ellman's method.
In data set [15] the target is T2, Beta-secretase 1. Briefly: Inhibition of recombinant human BACE-1 using MCA-SEVNLDAEFR-Ednp-KRR-NH2.3TFA as substrate incubated for 2 hrs by Varioskan-flash multimode plate reader analysis.
Data set [16] concerns Rattus norvegicus. Briefly: Antiinflammatory activity in carrageenan induced Sprague-Dawley rat acute inflammation model assessed as inhibition of paw edema at 50 mg/kg, po for 1 hr followed by carrageenan injection snd measured after 3 hrs relative to control. The note with it: time 4 hrs. Format: functional. More on the design: scale not given: the % may be the effect or the level left.

The subject of data set [17] is Rattus norvegicus. Briefly: Antiinflammatory activity in formalin induced Sprague-Dawley rat chronic inflammation model assessed as inhibition of paw edema at 50 mg/kg, po for 1 hr followed by formalin injection for 5 days relative to control. The format is functional. More on the design: scale not given: the % may be the effect or the level left. The conditions noted are these: time 5 day.

For data set [18], the target named is T3, Acetylcholinesterase. In words: Inhibition of recombinant human AChE using acetylthiocholine iodide as substrate preincubated for 5 mins followed by substrate addition by Ellman's method.
The target of data set [19] is T5, Cholinesterase. In words: Inhibition of recombinant human BuChE using butyrylthiocholine iodide as substrate preincubated for 5 mins followed by substrate addition by Ellman's method.
The subject of a further data set is HepG2. In words: Cytotoxicity against human HepG2 cells assessed as reduction in cell viability for 24 hrs by MTT assay. The note with it: HepG2, 24 h. The format is functional, cell-based. Background: Tetrazolium dyes change colour on reduction, which living cells bring about.
The subject of the next data set is SH-SY5Y. Briefly: Cytotoxicity against human SH-SY5Y cells assessed as reduction in cell viability for 24 hrs by MTT assay. Format: functional, cell-based.
For the next data set, the system named is SK-N-MC. Briefly: Antiproliferative activity against human SK-N-MC cells assessed as reduction in cell proliferation incubated for 72 hrs by MTT assay. The format is functional, cell-based.
Data set [20] in a line: Permeability of compound by PAMPA-BBB assay. Format: ADME. The conditions noted are these: read-out: permeability.
Data set [21] has as its target Microtubule-associated protein tau (Homo sapiens) (UniProt P10636). In words: Inhibition of tau aggregation (unknown origin) at 20 uM for 72 hrs by thioflavin S based fluorescence analysis.
Data set [22] is described as follows: Selectivity index, ratio of IC50 for inhibition of equine serum BuChE to IC50 for inhibition of electric eel AChE.
In data set [23] the target is T5, Cholinesterase. Briefly: Inhibition of BuChE (unknown origin).
Data set [24] has as its target T4, Amyloid-beta precursor protein. In words: Inhibition of self-induced amyloid beta (1 to 42) (unknown origin) aggregation at 25 uM.
For data set [25] the target is unchanged. In words: Inhibition of self-induced amyloid beta (1 to 42) (unknown origin) disaggregation at 25 uM.

T3 sequence (P22303 whole entry): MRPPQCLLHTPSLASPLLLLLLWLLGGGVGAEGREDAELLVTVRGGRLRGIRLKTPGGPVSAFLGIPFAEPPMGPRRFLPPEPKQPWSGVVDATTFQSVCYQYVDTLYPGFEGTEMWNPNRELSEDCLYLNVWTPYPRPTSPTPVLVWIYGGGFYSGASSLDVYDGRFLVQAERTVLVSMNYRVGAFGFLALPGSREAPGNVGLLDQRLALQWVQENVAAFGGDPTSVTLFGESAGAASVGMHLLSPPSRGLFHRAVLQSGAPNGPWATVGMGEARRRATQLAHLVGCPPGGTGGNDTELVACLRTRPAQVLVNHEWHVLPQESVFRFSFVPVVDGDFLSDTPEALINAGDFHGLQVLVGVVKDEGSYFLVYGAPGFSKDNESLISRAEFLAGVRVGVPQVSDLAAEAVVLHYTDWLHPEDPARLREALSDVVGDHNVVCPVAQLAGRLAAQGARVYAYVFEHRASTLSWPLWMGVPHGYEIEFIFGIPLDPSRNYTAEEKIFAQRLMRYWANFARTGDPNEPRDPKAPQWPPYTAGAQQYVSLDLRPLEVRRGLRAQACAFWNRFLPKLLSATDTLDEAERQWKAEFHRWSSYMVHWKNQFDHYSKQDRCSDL
T4 sequence (P05067 whole entry): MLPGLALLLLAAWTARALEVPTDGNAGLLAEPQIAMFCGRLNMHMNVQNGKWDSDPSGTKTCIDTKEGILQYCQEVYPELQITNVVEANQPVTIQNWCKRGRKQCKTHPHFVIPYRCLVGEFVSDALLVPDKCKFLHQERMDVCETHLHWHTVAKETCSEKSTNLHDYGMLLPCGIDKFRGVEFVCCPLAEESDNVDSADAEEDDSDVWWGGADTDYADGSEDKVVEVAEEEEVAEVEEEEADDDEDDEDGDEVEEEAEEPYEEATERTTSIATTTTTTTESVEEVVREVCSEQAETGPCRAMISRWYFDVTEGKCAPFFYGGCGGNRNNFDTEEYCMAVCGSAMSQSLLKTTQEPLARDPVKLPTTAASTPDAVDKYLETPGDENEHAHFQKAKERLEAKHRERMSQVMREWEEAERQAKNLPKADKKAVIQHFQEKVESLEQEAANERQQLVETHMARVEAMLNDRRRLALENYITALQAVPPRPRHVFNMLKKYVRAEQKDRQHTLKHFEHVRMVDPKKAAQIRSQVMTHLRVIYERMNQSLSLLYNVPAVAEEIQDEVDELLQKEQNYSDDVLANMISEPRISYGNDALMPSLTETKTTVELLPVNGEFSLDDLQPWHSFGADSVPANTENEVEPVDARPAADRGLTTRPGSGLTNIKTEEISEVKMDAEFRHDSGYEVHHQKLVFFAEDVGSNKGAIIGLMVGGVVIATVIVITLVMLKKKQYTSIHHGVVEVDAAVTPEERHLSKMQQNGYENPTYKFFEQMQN
T2 sequence (P56817 whole entry): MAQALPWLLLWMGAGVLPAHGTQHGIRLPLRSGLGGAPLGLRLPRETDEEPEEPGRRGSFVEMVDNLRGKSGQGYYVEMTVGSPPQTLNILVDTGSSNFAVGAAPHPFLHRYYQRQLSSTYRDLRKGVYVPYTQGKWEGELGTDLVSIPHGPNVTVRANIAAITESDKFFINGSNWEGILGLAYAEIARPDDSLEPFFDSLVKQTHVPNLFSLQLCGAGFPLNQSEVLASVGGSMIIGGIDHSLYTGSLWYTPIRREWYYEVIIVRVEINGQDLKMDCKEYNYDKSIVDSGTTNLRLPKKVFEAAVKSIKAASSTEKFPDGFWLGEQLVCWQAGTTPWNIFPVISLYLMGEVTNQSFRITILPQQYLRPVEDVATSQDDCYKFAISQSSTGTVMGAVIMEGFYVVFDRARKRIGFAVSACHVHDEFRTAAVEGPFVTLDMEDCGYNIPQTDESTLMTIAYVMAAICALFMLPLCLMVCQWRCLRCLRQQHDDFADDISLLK
T5 sequence (P06276 whole entry): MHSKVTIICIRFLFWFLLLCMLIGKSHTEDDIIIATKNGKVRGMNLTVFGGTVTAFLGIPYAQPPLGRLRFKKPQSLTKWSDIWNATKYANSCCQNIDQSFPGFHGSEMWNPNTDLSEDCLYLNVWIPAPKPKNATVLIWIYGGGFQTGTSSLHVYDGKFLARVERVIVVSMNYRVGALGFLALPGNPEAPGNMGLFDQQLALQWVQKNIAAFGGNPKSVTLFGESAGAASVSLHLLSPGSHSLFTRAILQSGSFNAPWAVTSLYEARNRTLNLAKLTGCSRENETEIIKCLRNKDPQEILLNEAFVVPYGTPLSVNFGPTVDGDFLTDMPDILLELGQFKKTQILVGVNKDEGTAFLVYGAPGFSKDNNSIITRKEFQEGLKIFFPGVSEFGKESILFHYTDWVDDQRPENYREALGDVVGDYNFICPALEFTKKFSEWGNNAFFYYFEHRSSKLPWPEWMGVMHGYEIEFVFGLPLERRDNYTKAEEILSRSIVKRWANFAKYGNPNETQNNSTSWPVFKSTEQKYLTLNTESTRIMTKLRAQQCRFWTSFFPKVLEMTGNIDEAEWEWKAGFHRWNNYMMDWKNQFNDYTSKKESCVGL
T1 sequence (O42275 whole entry): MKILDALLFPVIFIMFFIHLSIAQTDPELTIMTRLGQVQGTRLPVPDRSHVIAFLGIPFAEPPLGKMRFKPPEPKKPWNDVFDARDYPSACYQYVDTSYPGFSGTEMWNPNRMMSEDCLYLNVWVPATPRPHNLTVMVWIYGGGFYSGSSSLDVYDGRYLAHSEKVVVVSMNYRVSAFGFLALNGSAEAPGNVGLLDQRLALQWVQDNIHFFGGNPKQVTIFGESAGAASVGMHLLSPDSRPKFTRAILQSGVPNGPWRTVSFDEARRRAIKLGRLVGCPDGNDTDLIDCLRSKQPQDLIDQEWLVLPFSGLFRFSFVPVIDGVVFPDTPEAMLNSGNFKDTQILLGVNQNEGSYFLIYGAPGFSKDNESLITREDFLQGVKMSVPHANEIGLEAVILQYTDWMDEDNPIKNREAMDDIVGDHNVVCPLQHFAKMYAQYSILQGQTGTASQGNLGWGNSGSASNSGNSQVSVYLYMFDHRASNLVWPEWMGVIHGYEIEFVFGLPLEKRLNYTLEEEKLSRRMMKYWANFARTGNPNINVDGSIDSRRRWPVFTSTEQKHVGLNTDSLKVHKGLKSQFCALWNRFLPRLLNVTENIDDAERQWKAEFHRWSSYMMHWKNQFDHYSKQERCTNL
Chain of Microtubule-associated protein tau (Homo sapiens) (P10636 whole entry): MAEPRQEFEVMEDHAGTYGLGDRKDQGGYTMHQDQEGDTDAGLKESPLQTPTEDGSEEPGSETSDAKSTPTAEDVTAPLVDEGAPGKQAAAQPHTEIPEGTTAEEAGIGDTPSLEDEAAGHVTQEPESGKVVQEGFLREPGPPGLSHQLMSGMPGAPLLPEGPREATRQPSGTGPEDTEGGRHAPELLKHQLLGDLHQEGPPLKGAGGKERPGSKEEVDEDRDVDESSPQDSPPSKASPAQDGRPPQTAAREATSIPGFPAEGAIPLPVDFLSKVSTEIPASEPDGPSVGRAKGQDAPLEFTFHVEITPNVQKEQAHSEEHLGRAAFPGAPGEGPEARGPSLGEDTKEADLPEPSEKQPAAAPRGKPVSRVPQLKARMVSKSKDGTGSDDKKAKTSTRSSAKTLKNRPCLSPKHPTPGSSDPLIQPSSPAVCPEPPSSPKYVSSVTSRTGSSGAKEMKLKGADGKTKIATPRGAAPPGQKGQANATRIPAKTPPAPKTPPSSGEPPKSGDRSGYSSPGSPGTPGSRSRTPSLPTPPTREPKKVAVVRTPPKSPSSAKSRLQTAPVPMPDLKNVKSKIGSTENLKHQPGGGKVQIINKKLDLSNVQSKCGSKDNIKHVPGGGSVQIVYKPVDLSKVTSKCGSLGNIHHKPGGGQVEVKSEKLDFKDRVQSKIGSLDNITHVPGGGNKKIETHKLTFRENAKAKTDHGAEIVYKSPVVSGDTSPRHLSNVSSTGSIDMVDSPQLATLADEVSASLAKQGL
Chain of Amine oxidase [flavin-containing] A (P21397 whole entry): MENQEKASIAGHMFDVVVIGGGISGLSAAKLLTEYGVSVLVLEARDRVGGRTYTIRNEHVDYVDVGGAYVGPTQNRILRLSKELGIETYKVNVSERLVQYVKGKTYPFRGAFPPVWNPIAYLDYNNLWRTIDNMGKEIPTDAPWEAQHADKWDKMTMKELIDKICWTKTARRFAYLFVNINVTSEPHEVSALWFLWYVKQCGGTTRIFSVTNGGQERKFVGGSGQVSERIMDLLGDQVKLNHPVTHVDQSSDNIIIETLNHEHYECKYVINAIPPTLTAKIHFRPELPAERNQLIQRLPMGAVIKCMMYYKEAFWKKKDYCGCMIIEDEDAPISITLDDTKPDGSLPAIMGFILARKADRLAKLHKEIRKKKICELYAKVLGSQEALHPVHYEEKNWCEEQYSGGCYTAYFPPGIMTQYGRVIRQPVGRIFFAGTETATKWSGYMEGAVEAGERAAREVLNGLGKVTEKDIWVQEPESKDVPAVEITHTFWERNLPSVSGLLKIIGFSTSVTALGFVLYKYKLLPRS
Chain of Cholinesterase (Equus caballus, UniProt P81908) (P81908 whole entry): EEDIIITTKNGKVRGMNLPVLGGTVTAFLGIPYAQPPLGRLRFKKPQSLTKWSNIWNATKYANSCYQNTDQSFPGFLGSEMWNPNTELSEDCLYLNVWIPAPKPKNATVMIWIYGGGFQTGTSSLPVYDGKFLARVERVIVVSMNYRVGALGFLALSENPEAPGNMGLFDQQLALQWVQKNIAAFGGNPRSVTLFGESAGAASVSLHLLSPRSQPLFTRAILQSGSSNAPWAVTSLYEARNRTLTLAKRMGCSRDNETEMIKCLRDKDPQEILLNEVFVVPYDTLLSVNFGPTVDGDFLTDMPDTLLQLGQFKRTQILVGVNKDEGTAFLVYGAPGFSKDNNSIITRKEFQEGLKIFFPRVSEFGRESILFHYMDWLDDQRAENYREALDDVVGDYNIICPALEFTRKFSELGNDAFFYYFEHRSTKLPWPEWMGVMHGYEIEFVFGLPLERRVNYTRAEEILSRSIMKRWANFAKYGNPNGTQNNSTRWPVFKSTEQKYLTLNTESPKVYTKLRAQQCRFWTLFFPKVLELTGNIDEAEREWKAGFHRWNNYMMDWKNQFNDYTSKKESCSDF

For `O=c1c2ccc(OCCN3CCCC3)cc2oc2cc(OCCN3CCCC3)cc(O)c12`, the IC50 at Acetylcholinesterase [1] was 0.12 µM. `O=C(OC1O[C@@H]2COC(=O)c3cc(O)c(O)c(O)c3-c3c(cc(O)c(O)c3O)C(=O)O[C@H]2[C@H](OC(=O)c2cc(O)c(O)c(O)c2)[C@H]1OC(=O)c1cc(O)c(O)c(O)c1)c1cc(O)c(O)c(O)c1` (some centres undefined) [TELLIMAGRANDIN II] yielded a concentration for half-maximal inhibition (IC50) at Beta-secretase 1 [2] of 20.2 µM. As for `C#CCOc1cccc(-c2cc(-c3ccc(OCCN4CCOCC4)cc3)nc(C)n2)c1`, the IC50 on Acetylcholinesterase [3] amounted to 0.00954 µM.

Consider `O=C(CCN1CCN(Cc2ccccc2)CC1)Nc1ccc2nc3n(c(=O)c2c1)CCC3`, for which the IC50 is 9.26 µM in data set [4], 3.29 µM on Acetylcholinesterase [5] and 0.129 µM on Beta-secretase 1 [7]. Further, the inhibition against Cholinesterase [6] was 45.3%. Take `O=S(=O)(NC12CC3CC(CC(C3)C1)C2)C1CCCS1` (centres undefined): the values for the inhibition in [8] and in data set [9] were 26% and 88%, respectively. In the case of `C#CCOc1ccc(-c2cc(-c3ccc(OCCN4CCOCC4)cc3)nc(N)n2)cc1`, the IC50 in data set [10] came to 18.3 µM; in [11], 9.91 µM.

`CCN(CC)Cc1ccc(/C=C/C(=O)c2ccc(OC)c(OC)c2)cc1O` registered an inhibition in data set [12] of 20.2%. Consider `c1ccc(C[n+]2ccc(-c3nc4ccccc4s3)cc2)cc1`, for which the IC50 at Acetylcholinesterase [13] came out at 0.014 µM; against Cholinesterase [14], 0.182 µM.

For the molecule `Cc1cc2nc(-c3cnc(N)s3)c(-c3cnc(N)s3)nc2cc1C`, the IC50 on Beta-secretase 1 [15] was 3 µM. Also, the Activity with Rattus norvegicus [16] was 69%; with Rattus norvegicus [17] it was 55%. `COc1ccc2nc3c(c(N)c2c1)C1CC=CC(C3)C1` (centres undefined): the IC50 on Acetylcholinesterase [18] was found to be 2.63 µM; at Cholinesterase [19] it was 3.76 µM; in the data set on HepG2 it was 14.9 µM; in the data set with SH-SY5Y it was 17.8 µM. `O=C(N/N=C/c1ccccn1)c1ccc(C(=O)NC23CC4CC(CC(C4)C2)C3)cc1`: the IC50 in the data set with SK-N-MC was 42.4 µM. With `CC1=C[C@H]2c3c(O)cc(-c4cc5ccc(O)cc5o4)cc3O[C@@]3(c4ccc(O)c5c4OC(C)(C)C=C5)Oc4cc(O)ccc4[C@H](C1)[C@@H]23`, in data set [20], the Papp is 8.7 ×10⁻⁶ cm/s. Moreover, the inhibition in data set [21] came out at 63.3%. For the molecule `Cc1nc(C)c(C(=O)OCCCOC(=O)c2ccccn2)nc1C`, the Ratio IC50 in data set [22] was found to be 1.32e+07. `CC1=C[C@H]2c3c(O)cc(-c4cc5ccc(O)cc5o4)cc3O[C@@]3(c4ccc(O)cc4O)Oc4cc(O)ccc4[C@H](C1)[C@@H]23`: in [21], the inhibition was determined as 37.3%. For the molecule `COc1cc(/C=C/C(=O)N2CCC(c3ncccn3)CC2)ccc1O`, the half-maximal inhibitory concentration (IC50) on Cholinesterase [23] came to 3.4 µM. Besides, the inhibition stood at 61.1% in data set [24] and 53.1% in data set [25].
